The record followed here is patent US6660752B2, “2,6-Substituted chroman derivatives useful as beta-3 adrenoreceptor agonists” (Bayer Pharmaceuticals Corporation, priority 2001, dated 2003).

Some results are limits rather than exact numbers.

In one experiment the target is T1, human beta-3-adrenergic receptor (Homo sapiens, UniProt P13945).
T1 construct: stably express full-length human beta-3-adrenergic receptor; expressed in transfected cells; host or cells: Chinese hamster ovary (CHO) cells
T1 sequence (P13945 whole entry): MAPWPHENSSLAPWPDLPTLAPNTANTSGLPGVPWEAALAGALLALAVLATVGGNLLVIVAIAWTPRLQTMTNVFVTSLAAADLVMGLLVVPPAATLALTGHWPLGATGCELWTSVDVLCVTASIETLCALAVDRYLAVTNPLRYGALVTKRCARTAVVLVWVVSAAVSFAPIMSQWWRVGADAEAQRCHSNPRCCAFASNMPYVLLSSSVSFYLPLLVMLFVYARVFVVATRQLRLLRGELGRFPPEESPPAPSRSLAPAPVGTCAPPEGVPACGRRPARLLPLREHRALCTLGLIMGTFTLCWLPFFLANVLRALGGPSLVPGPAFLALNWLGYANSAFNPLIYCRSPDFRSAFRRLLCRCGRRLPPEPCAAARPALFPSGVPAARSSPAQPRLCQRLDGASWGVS
The experiment is described as follows: cAMP production (beta-3 agonist activity) in CHO cells stably expressing human beta-3-adrenergic receptor, cAMP SPA. The format is cell-based. To be noted: CHO cells expressing full-length human beta-3-adrenergic receptor, 30 min incubation, 10 μM to 3 nM, read-out: Beta-3 Agonistic Activity: Compounds with EC50 values >1 μM. How it is done:
Chinese hamster ovary (CHO) cells that stably express full-length human beta-3-adrenergic receptor (Granneman et al., Mol. Pharmacol. 44:264-270, 1993) can be used in the following procedure. The cell line is grown in 90% F12 nutrient mixture (HAM), 10% fetal bovine serum, 100 units/ml penicillin G sodium, […] streptomycin sulfate, and 2 mM L-glutamine at 37° C. in 95% air and 5% CO2. The transfected cell line is maintained with G-418 (800 μg/ml).
To test the agonist activity, cells are exposed to test compound and then assayed for cAMP production. CHO cells (100 μl) are plated at 5×10^4 cells/well of a 96-well plate (Costar, Cambridge, Mass.) to achieve 70% confluency the next day. After overnight incubation at 37° C., media is removed and the cells are treated for 30 minutes at 37° C. with KRP buffer (120 mM NaCl, 5.1 mM KCl, 0.6 mM MgSO4.7H2O, 0.8 mM CaCl2.H2O, […] phosphate buffer, […] Hepes pH 7.4)+[…] IBMX ([…]), +1% DMSO, +/− test compounds ([…]). Test compounds are assayed from 10 μM to 3 nM with 3-fold serial dilutions. The control agonist, isoproterenol (10 mM stock in 1.1 mM ascorbate), is assayed by 3-fold dilution beginning at 1 μM. After a 30-minute incubation with the test compounds, the buffer/compound mixture is removed. The cells are lysed and cAMP levels are measured using the cAMP SPA screening assay system (Amersham, Arlington Heights, Ill.). The cAMP values are then plotted to determine the EC50 of each compound tested.
On the technique in general: Cyclic AMP is a second messenger, typically raised through Gs and lowered through Gi signalling.
Regarding `COc1cccc(-c2ccc3c(c2)CC[C@H](CNC[C@H](O)c2cccnc2)O3)c1` [Example 43], the EC50 (usually the concentration giving half of the maximal effect) is more than 1000 nM.

Take `O=[N+]([O-])c1cccc(-c2ccc3c(c2)CC[C@H](CNC[C@H](O)c2cccnc2)O3)c1` [Example 42]: the EC50 was more than 1000 nM.

As to `Nc1ccc([C@@H](O)CNC[C@H]2CCc3cc(C(=O)N(CC(=O)O)Cc4ccccn4)ccc3O2)cn1` [Example 365], the concentration for a half-maximal effect (EC50) is more than 1000 nM.

As for `Nc1ccc([C@@H](O)CNC[C@H]2CCc3cc(C(=O)N4CCCC[C@H]4C(=O)O)ccc3O2)cn1` [Example 364], the EC50 was more than 1000 nM.

For `Cc1ccc(-c2ccc3c(c2)CC[C@H](CNC[C@H](O)c2cccnc2)O3)cc1` [Example 45], the EC50 was more than 1000 nM.

Take `O[C@@H](CNC[C@H]1CCc2cc(-c3cccc(Cl)c3)ccc2O1)c1cccnc1` [Example 41]: the EC50 was more than 1000 nM.

Still in this experiment, the particulars now being: CHO cells expressing full-length human beta-3-adrenergic receptor, 30 min incubation, 10 μM to 3 nM, read-out: Beta-3 Agonistic Activity: Compounds with EC50 values ≦1 μM.
Take `O=C(Nc1ccc(F)cc1)NS(=O)(=O)c1ccc(-c2ccc3c(c2)CC[C@H](CNC[C@H](O)c2cccnc2)O3)cc1` [Example 327, 3-((1R)-2-{[((2R)-6-{4-[({[(4-fluorophenyl)amino]carbonyl}amino)sulfonyl]phenyl}-3,4-dihydro-2H-chromen-2-yl)methyl]amino}-1-hydroxyethyl)pyridine]: the EC50 was not above 1000 nM.

On to `O=C(O)c1cccc(CCc2ccc3c(c2)CCC(CNC[C@H](O)c2cccnc2)O3)c1` (stereo in doubt) [Example 216, 3-{2-[(2S)-2-({[(2R)-2-hydroxy-2-(3-pyridinyl)ethyl]amino}methyl)-3,4-dihydro-2H-chromen-6-yl]ethyl}benzoic Acid], for which the EC50 is not above 1000 nM.

Take `Cc1cccc(C(=O)NS(=O)(=O)c2cccc(-c3ccc4c(c3)CC[C@H](CNC[C@H](O)c3cccnc3)O4)c2)c1` [Example 297]: the EC50 was not above 1000 nM.

In the case of `COc1cc(C)nc(NS(=O)(=O)c2ccc(-c3ccc4c(c3)CC[C@H](CNC[C@H](O)c3cccnc3)O4)cc2OC(F)(F)F)n1` [Example 275, 4-[(2R)-2-({[(2R)-2-hydroxy-2-(3-pyridinyl)ethyl]amino}methyl)-3,4-dihydro-2H-chromen-6-yl]-N-(4-methoxy-6-methyl-2-pyrimidinyl)-2-(trifluoromethoxy)benzenesulfonamide], the 50% effective concentration (EC50) is not above 1000 nM.

With `N#Cc1cc([N+](=O)[O-])ccc1NS(=O)(=O)c1cccc(-c2ccc3c(c2)CC[C@H](CNC[C@H](O)c2cccnc2)O3)c1` [Example 259, N-(2-cyano-4-nitrophenyl)-3-[(2R)-2-({[(2R)-2-hydroxy-2-(3-pyridinyl)ethyl]amino}methyl)-3,4-dihydro-2H-chromen-6-yl]benzenesulfonamide], the EC50 is not above 1000 nM.

For the compound `Cc1ccnc(NS(=O)(=O)c2ccc(-c3ccc4c(c3)CC[C@H](CNC[C@H](O)c3cccnc3)O4)cc2)n1` [Example 268, 4-[(2R)-2-({[(2R)-2-hydroxy-2-(3-pyridinyl)ethyl]amino}methyl)-3,4-dihydro-2H-chromen-6-yl]-N-(4-methyl-2-pyrimidinyl)benzenesulfonamide], the EC50 is not above 1000 nM.

Consider `O=S(=O)(Nc1nccs1)c1ccc(-c2ccc3c(c2)CC[C@H](CNC[C@H](O)c2cccnc2)O3)cc1` [Example 265, 4-[(2R)-2-({[(2R)-2-hydroxy-2-(3-pyridinyl)ethyl]amino}methyl)-3,4-dihydro-2H-chromen-6-yl]-N-(1,3-thiazol-2-yl)benzenesulfonamide], for which the EC50 is not above 1000 nM.

`O=C(O)c1ccc(-c2ccc3c(c2)CC[C@H](CNC[C@H](O)c2cccnc2)O3)cc1Oc1ccc(Cl)cc1` [Example 194, 2-(4-chlorophenoxy)-4-[(2R)-2-({[(2R)-2-hydroxy-2-(3-pyridinyl)ethyl]amino}methyl)-3,4-dihydro-2H-chromen-6-yl]benzoic acid]: the EC50 was not above 1000 nM.

Consider `COc1ccc(-c2ccc3c(c2)CC[C@H](CNC[C@H](O)c2cccnc2)O3)cc1S(=O)(=O)Nc1nccc(C)n1` [Example 269], for which the EC50 was not above 1000 nM.

For `CC(C)(C)C(=O)NS(=O)(=O)c1ccc(-c2ccc3c(c2)CC[C@H](CNC[C@H](O)c2cccnc2)O3)cc1` [Example 292, N-(2,2-dimethylpropanoyl)-4-[(2R)-2-({[(2R)-2-hydroxy-2-(3-pyridinyl)ethyl]amino}methyl)-3,4-dihydro-2H-chromen-6-yl]benzenesulfonamide], the EC50 was not above 1000 nM.

For the compound `COc1ccc(C(=O)NS(=O)(=O)c2cccc(-c3ccc4c(c3)CCC(CNC[C@H](O)c3cccnc3)O4)c2)cc1` (stereo partly drawn) [Example 303], the EC50 was not above 1000 nM.

Consider `COc1cccc(C(=O)NS(=O)(=O)c2cccc(-c3ccc4c(c3)CC[C@H](CNC[C@H](O)c3cccnc3)O4)c2)c1` [Example 298], for which the EC50 is not above 1000 nM.

On to `CC(C)C(=O)NS(=O)(=O)c1ccc(-c2ccc3c(c2)CC[C@H](CNC[C@H](O)c2cccnc2)O3)cc1` [Example 290], for which the EC50 is not above 1000 nM.

Consider `COc1ccc(NC(=O)NS(=O)(=O)c2cccc(-c3ccc4c(c3)CC[C@H](CNC[C@H](O)c3cccnc3)O4)c2)cc1` [Example 334], for which the EC50 was not above 1000 nM.

Take `CC(C)Oc1cc(-c2ccc3c(c2)CC[C@H](CNC[C@H](O)c2cccnc2)O3)ccc1C(=O)O` [Example 188, 4-[(2R)-2-({[(2R)-2-hydroxy-2-(3-pyridinyl)ethyl]amino}methyl)-3,4-dihydro-2H-chromen-6-yl]-2-isopropoxybenzoic acid]: the EC50 is not above 1000 nM.

As for `COc1ccc(Oc2cc(-c3ccc4c(c3)CC[C@H](CNC[C@H](O)c3cccnc3)O4)ccc2C(=O)O)cc1` [Example 196, 4-[(2R)-2-({[(2R)-2-hydroxy-2-(3-pyridinyl)ethyl]amino}methyl)-3,4-dihydro-2H-chromen-6-yl]-2-(4-methoxyphenoxy)benzoic acid], the EC50 is not above 1000 nM.

For the compound `O=C(Nc1ccccc1F)NS(=O)(=O)c1cccc(-c2ccc3c(c2)CC[C@H](CNC[C@H](O)c2cccnc2)O3)c1` [Example 336], the EC50 was not above 1000 nM.

As for `O=C1CCc2cc(NS(=O)(=O)c3ccc(-c4ccc5c(c4)CC[C@H](CNC[C@H](O)c4cccnc4)O5)cc3)ccc21` [Example 258], the EC50 is not above 1000 nM.

Regarding `O=C(NC1CCCCC1)NS(=O)(=O)c1ccc(-c2ccc3c(c2)CC[C@H](CNC[C@H](O)c2cccnc2)O3)cc1` [Example 329, 3-{(1R)-2-[({(2R)-6-[4-({[(cyclohexylamino)carbonyl]amino}sulfonyl)phenyl]-3,4-dihydro-2H-chromen-2-yl}methyl)amino]-1-hydroxyethyl}pyridine], the EC50 was not above 1000 nM.

Consider `Cc1ccc(Oc2cc(-c3ccc4c(c3)CC[C@H](CNC[C@H](O)c3cccnc3)O4)ccc2C(=O)O)cc1` [Example 195, 4-[(2R)-2-({[(2R)-2-hydroxy-2-(3-pyridinyl)ethyl]amino}methyl)-3,4-dihydro-2H-chromen-6-yl]-2-(4-methylphenoxy)benzoic acid], for which the EC50 is not above 1000 nM.

`O=C(O)c1ccc(-c2ccc3c(c2)CC[C@H](CNC[C@@H](O)c2c(F)ccc(Cl)c2F)O3)cc1` [Example 348]: the EC50 was not above 1000 nM.

With `CN1C(=O)c2ccc(NS(=O)(=O)c3cccc(-c4ccc5c(c4)CC[C@H](CNC[C@H](O)c4cccnc4)O5)c3)cc2C1=O` [Example 252], the EC50 is not above 1000 nM.

Consider `O=C(NS(=O)(=O)c1cccc(-c2ccc3c(c2)CCC(CNC[C@H](O)c2cccnc2)O3)c1)c1ccc(Cl)cc1` (stereo partly drawn) [Example 301], for which the EC50 was not above 1000 nM.

Turning to `COc1cccc(C(=O)NS(=O)(=O)c2ccc(-c3ccc4c(c3)CC[C@H](CNC[C@H](O)c3cccnc3)O4)cc2)c1` [Example 293, 4-[(2R)-2-({[(2R)-2-hydroxy-2-(3-pyridinyl)ethyl]amino}methyl)-3,4-dihydro-2H-chromen-6-yl]-N-(3-methoxybenzoyl)benzenesulfonamide], the EC50 was not above 1000 nM.

As to `CC(C)(C)CC(=O)NS(=O)(=O)c1ccc(-c2ccc3c(c2)CC[C@H](CNC[C@H](O)c2cccnc2)O3)cc1` [Example 287, N-(3,3-dimethylbutanoyl)-4-[(2R)-2-({[(2R)-2-hydroxy-2-(3-pyridinyl)ethyl]amino}methyl)-3,4-dihydro-2H-chromen-6-yl]benzenesulfonamide], the EC50 was not above 1000 nM.

With `O=C(Nc1ccccc1)NS(=O)(=O)c1ccc(-c2ccc3c(c2)CC[C@H](CNC[C@H](O)c2cccnc2)O3)cc1` [Example 328, 3-[(1R)-2-({[(2R)-6-(4-{[(anilinocarbonyl)amino]sulfonyl}phenyl)-3,4-dihydro-2H-chromen-2-yl]methyl}amino)-1-hydroxyethyl]pyridine], the EC50 was not above 1000 nM.

With `O=C(Nc1ccc(Cl)cc1)NS(=O)(=O)c1ccc(-c2ccc3c(c2)CC[C@H](CNC[C@H](O)c2cccnc2)O3)cc1` [Example 340], the EC50 was not above 1000 nM.
